Key:
[1] = tested on: adipose tissue-derived stem cells; assay: Cell growth density analysis, normal vs high oxygen environment; type: cell-based, human; conditions: high oxygen environment (37.5%), seventh day; FIG. 4A
Source text: In this experiment, the culture conditions are divided into four groups, respectively: a culture group with a basic medium and FGF-2 in a normal oxygen environment, a culture group with a basic medium and FGF-2 in a high oxygen environment, a culture group with a basic medium and the adjuvant of the present invention in a normal oxygen environment, and a culture group with a basic medium and the adjuvant of the present invention in a high oxygen environment, wherein the high oxygen environment refers to a partial pressure of oxygen approximately equal to 37.5%, and parameters of the culture conditions (such as a basic medium, an incubator and a cell culture density) are the same as described in Section 1 of the aforementioned Experiment 1.
The cells are cleaned once by a phosphate buffer solution (PBS), and then reacted with a Trypsin-EDTA solution at 37 degrees Celsius for 5 minutes, and then the cell spatula is used to remove incompletely reacted cells carefully, and the same proportion of a medium containing a fetal bovine serum is used for neutralizing the enzyme activity of trypsin. The number of cells is measured by a cell counter (Vi-CELL AS, Beckman Coulter). […] Each set of experiment data is measured for three times, and the result is expressed in term of mean± standard deviation.

[2] = tested on: adipose tissue-derived stem cells; assay: Western Blot of p21 and CDK2 proteins, normal vs high oxygen; type: cell-based, human; conditions: high oxygen environment (37.5%); FIG. 4B
Source text: The culture conditions of the adipose tissue-derived stem cell are divided into four groups as described in the aforementioned section 5. The Western Blot Analysis is used for the analysis to observe the effect of the controlling and adjusting the cell cycle related proteins of the adipose tissue-derived stem cells cultured in different culture conditions on the protein expression of the cell cycle related proteins (such as p21 and CDK2). Similarly, the expression of the β-actin protein is used as a control for the standardization of quantifying each aforementioned protein expression into data.

Substance: FGF-2: basic fibroblast growth factor, concentration of 10 ng/mL (R&D Systems), comparison culture additive
- total number of cells [1]: below 2.5×10^6
- expression of the p21 protein [2]: significant increase of the expression of the p21 protein

— patent US10465167B2, “Adjuvant for rapid proliferation of human mesenchymal stem cells in vitro, method for rapid proliferation of human mesenchymal stem cells in vitro, method for growth factor harvested from rapid proliferation of human mesenchymal stem cells in vitro and use thereof” (BUDDHIST TZU CHI MEDICAL FOUNDATION, priority 2013, dated 2019)
